PubChem BioAssay AID1745844 (Carcinogenic Potency Database (CPDB), 2022)
Calls of active or inactive are those of the source. No rule for the calls is given here.

Tested on: rodent lifetime carcinogenesis bioassay, tumor incidence TD50
Assay: chronic cancer bioassays in animals – CPDB, compiled studies (AID 1745844)

**Q.** For O=C1C=C(N2CC2)C(=O)C(N2CC2)=C1N1CC1, which TD50 (rat, strain BR 46, males, i.v., site: any site (literature study), lesion: benign tumor, dosed 52 weeks, study length 104 weeks) is on record?
**A.** The TD50 was 0.032 mg/kg/day.

**Q.** And the TD50 (rat, strain BR 46, males, i.v., site: any site (literature study), lesion: malignant tumor, dosed 52 weeks, study length 104 weeks)?
**A.** Its TD50 is 0.00677 mg/kg/day.

**Q.** And the TD50 (rat, strain BR 46, males, i.v., site: any site (literature study), lesion: several types, types named in the paper, dosed 52 weeks, study length 104 weeks)?
**A.** The TD50 was 0.00504 mg/kg/day.

**Q.** What about the TD50 (rat, strain BR 46, males, i.v., site: liver, lesion: liver-cell carcinoma, dosed 52 weeks, study length 104 weeks) of the same molecule?
**A.** The TD50 was 0.0653 mg/kg/day.

**Q.** How did the TD50 (rat, strain Fischer 344, females, in feed, site: forestomach, lesion: squamous-cell carcinoma, dosed 104 weeks, study length 104 weeks) turn out when O=[N+]([O-])c1cccc2cccnc12 was run?
**A.** Its TD50 is 32.8 mg/kg/day.

**Q.** And the TD50 (rat, strain Fischer 344, females, in feed, site: forestomach, lesion: squamous-cell papilloma, dosed 104 weeks, study length 104 weeks)?
**A.** Its TD50 is 9.55 mg/kg/day.

**Q.** And the carcinogen call (rat, strain Fischer 344, females, in feed, site: liver, lesion: hyperplastic nodule, dosed 104 weeks, study length 104 weeks)?
**A.** The carcinogen call was “negative (inactive)”.

**Q.** And the TD50 (rat, strain Fischer 344, males, in feed, site: forestomach, lesion: squamous-cell carcinoma, dosed 104 weeks, study length 104 weeks)?
**A.** The TD50 was 24.9 mg/kg/day.

**Q.** What about the TD50 (rat, strain Fischer 344, males, in feed, site: forestomach, lesion: squamous-cell papilloma, dosed 104 weeks, study length 104 weeks) of the same molecule?
**A.** The TD50 was 10.1 mg/kg/day.

**Q.** And the carcinogen call (rat, strain Fischer 344, males, in feed, site: liver, lesion: hyperplastic nodule, dosed 104 weeks, study length 104 weeks)?
**A.** Its carcinogen call is “negative (inactive)”.

**Q.** For Cc1c2ccccc2c(C)c2c1ccc1ccccc12, which TD50 (mouse, strain albino, females, in feed, site: forestomach, lesion: papilloma, dosed 60 weeks, study length 60 weeks) is on record?
**A.** Its TD50 is 0.287 mg/kg/day.

**Q.** What about the TD50 (mouse, strain albino, females, in feed, site: mesenteric intestine, lesion: angio-endothelioma, malignant, dosed 60 weeks, study length 60 weeks) of the same molecule?
**A.** Its TD50 is 0.084 mg/kg/day.

**Q.** With NC(N)=S as the molecule, how does the carcinogen call (rat, strain Fischer 344, males, i.p., site: liver, lesion: one or several types, types not named, dosed 60 weeks, study length 60 weeks) read?
**A.** Its carcinogen call is “negative (inactive)”.

**Q.** What about the TD50 (rat, strain Hebrew University, males, in drinking water, site: any site (literature study), lesion: several types, types named in the paper, dosed 113 weeks, study length 113 weeks) of the same molecule?
**A.** Its TD50 is 27.5 mg/kg/day.

**Q.** What about the TD50 (rat, strain Hebrew University, males, in drinking water, site: auricular region, lesion: epidermoid carcinoma, dosed 113 weeks, study length 113 weeks) of the same molecule?
**A.** Its TD50 is 93.5 mg/kg/day.

**Q.** What about the TD50 (rat, strain Hebrew University, males, in drinking water, site: eyelid, lesion: epidermoid carcinoma, dosed 113 weeks, study length 113 weeks) of the same molecule?
**A.** The TD50 was 93.5 mg/kg/day.

**Q.** And the TD50 (rat, strain Hebrew University, males, several routes, site: any site (literature study), lesion: several types, types named in the paper, dosed 95 weeks, study length 95 weeks)?
**A.** Its TD50 is 50.8 mg/kg/day.

**Q.** And the TD50 (rat, strain Hebrew University, males, several routes, site: auricular region, lesion: epidermoid carcinoma, dosed 95 weeks, study length 95 weeks)?
**A.** Its TD50 is 104 mg/kg/day.

**Q.** What about the TD50 (rat, strain Hebrew University, males, several routes, site: eyelid, lesion: epidermoid carcinoma, dosed 95 weeks, study length 95 weeks) of the same molecule?
**A.** The TD50 was 225 mg/kg/day.

**Q.** And the TD50 (rat, strain Osborne-Mendel, females, in feed, site: any site (literature study), lesion: benign tumor, dosed 104 weeks, study length 104 weeks)?
**A.** Its TD50 is 15 mg/kg/day (inactive).

**Q.** And the carcinogen call (rat, strain Osborne-Mendel, females, in feed, site: any site (literature study), lesion: malignant tumor, dosed 104 weeks, study length 104 weeks)?
**A.** The carcinogen call was “negative (inactive)”.

**Q.** And the TD50 (rat, strain Osborne-Mendel, females, in feed, site: any site (literature study), lesion: several types, types named in the paper, dosed 113 weeks, study length 113 weeks)?
**A.** Its TD50 is 16.2 mg/kg/day (inactive).

**Q.** And the carcinogen call (rat, strain Osborne-Mendel, females, in feed, site: liver, lesion: one or several types, types not named, dosed 104 weeks, study length 104 weeks)?
**A.** Its carcinogen call is “negative (inactive)”.

**Q.** What about the carcinogen call (rat, strain Osborne-Mendel, females, in feed, site: liver, lesion: one or several types, types not named, dosed 113 weeks, study length 113 weeks) of the same molecule?
**A.** Its carcinogen call is “negative (inactive)”.

**Q.** What about the TD50 (rat, strain Osborne-Mendel, males, in feed, site: any site (literature study), lesion: benign tumor, dosed 104 weeks, study length 104 weeks) of the same molecule?
**A.** The TD50 was 64.7 mg/kg/day (inactive).

**Q.** And the carcinogen call (rat, strain Osborne-Mendel, males, in feed, site: any site (literature study), lesion: malignant tumor, dosed 104 weeks, study length 104 weeks)?
**A.** Its carcinogen call is “negative (inactive)”.

**Q.** What about the TD50 (rat, strain Osborne-Mendel, males, in feed, site: any site (literature study), lesion: several types, types named in the paper, dosed 113 weeks, study length 113 weeks) of the same molecule?
**A.** The TD50 was 46.1 mg/kg/day (inactive).

**Q.** And the carcinogen call (rat, strain Osborne-Mendel, males, in feed, site: liver, lesion: one or several types, types not named, dosed 104 weeks, study length 104 weeks)?
**A.** Its carcinogen call is “negative (inactive)”.

**Q.** And the carcinogen call (rat, strain Osborne-Mendel, males, in feed, site: liver, lesion: one or several types, types not named, dosed 113 weeks, study length 113 weeks)?
**A.** The carcinogen call was “negative (inactive)”.

**Q.** For N=c1ccn2c(n1)O[C@H]1[C@H](O)[C@@H](CO)O[C@H]12, which carcinogen call (rat, strain Wistar, females, i.p., site: any site (literature study), lesion: one or several types, types not named, dosed 52 weeks, study length 52 weeks) is on record?
**A.** The carcinogen call was “negative (inactive)”.

**Q.** And the carcinogen call (rat, strain Wistar, females, i.p., site: any site (literature study), lesion: several types, types named in the paper, dosed 104 weeks, study length 104 weeks)?
**A.** The carcinogen call was “negative (inactive)”.

**Q.** And the carcinogen call (rat, strain Wistar, males, i.p., site: any site (literature study), lesion: one or several types, types not named, dosed 52 weeks, study length 52 weeks)?
**A.** Its carcinogen call is “negative (inactive)”.

**Q.** What about the carcinogen call (rat, strain Wistar, males, i.p., site: any site (literature study), lesion: several types, types named in the paper, dosed 104 weeks, study length 104 weeks) of the same molecule?
**A.** The carcinogen call was “negative (inactive)”.

**Q.** How did the carcinogen call (rat, strain F344/DuCrj, females, in drinking water, site: thymus gland, lesion: lymphoma, dosed 70 weeks, study length 70 weeks) turn out when CCCN(N=O)C(N)=O was run?
**A.** The carcinogen call was “positive”.

**Q.** What about the carcinogen call (rat, strain F344/DuCrj, females, in drinking water, site: thymus gland, lesion: lymphoma, dosed 75 weeks, study length 75 weeks) of the same molecule?
**A.** The carcinogen call was “positive”.

**Q.** And the carcinogen call (rat, strain F344/DuCrj, males, in drinking water, site: thymus gland, lesion: lymphoma, dosed 70 weeks, study length 70 weeks)?
**A.** The carcinogen call was “positive”.

**Q.** And the carcinogen call (rat, strain F344/DuCrj, males, in drinking water, site: thymus gland, lesion: lymphoma, dosed 75 weeks, study length 75 weeks)?
**A.** The carcinogen call was “positive”.
